Reference: patent US20240368214A1, “POSITIVE NMDA-MODULATING COMPOUNDS AND METHODS OF USE THEREOF” (SAGE THERAPEUTICS, INC., priority 2021, published 2024)
Read-outs that look alike come from different tables or passages of the source.

Biological target: T1, recombinant human GluN1/GluN2A receptor (Homo sapiens, UniProt Q05586+Q12879)
T1 construct: expressed in transfected cells; host or cells: HEK293, tetracycline-inducible expression
Experiment: Whole-cell patch clamp of mammalian cells (Syncropatch 384i), NMDA modulation
Format: cell-based
Settings: HEK293 cells, human GluN1/GluN2A, glutamate 1 μM / glycine 100 μM, -80 mV, peak amplitude increase; for EC50: read-out: EC50
Excerpt: Whole-Cell Patch Clamp of Mammalian Cells (Syncropatch 384i (Nanion Technologies))
Whole-cell patch clamp electrophysiology was used to investigate the effects of compounds on GluN1/GluN2A N-methyl-D-aspartate (NMDA) glutamate receptors expressed in mammalian cells.
Human embryonic kidney (HEK293) cells expressing the recombinant human GluN1/GluN2A receptor under the control of a tetracycline-inducible expression system were used. Cells were maintained in Dulbecco's Modified Eagle's Medium (DMEM) with 1% glutamine, 10% Tetracycline System Approved fetal bovine serum (FBS), and NMDA inhibitors. Cells were cultured in a humidified 5% CO2 incubator at 37° C. Cells were induced with 50 ng/ml tetracycline 18-24 hours prior to testing. A cocktail of channel blockers was added to the media to prevent cell death.
Cells were 60-80% confluent at the time of harvest. Cells were detached from the flask TrypLE Enzyme Express (Thermo Fisher) at 37° C., and then cold extracellular solution was added to the flask, followed by incubation at 4° C. and then trituration of the cells. The cell solution was then placed on a shaker on the Syncropatch platform at 10° C. with a shake speed of a minimum 200 rpm for at least 30 minutes prior to testing.
Extracellular (EC) solution (in mM) —140 NaCl, 4 KCl, 5 CaCl2, 10 HEPES, 5 Glucose, pH 7.4 with NaOH. All external solutions contained 0.2% DMSO and 0.01% Kolliphor® EL (C5135, Sigma) throughout the experiment.
Intracellular (IC) solution (in mM) —120 CsF, 10 mM EGTA, 10 NaCl, 10 HEPES, 4 NaATP, 2 MgCl2, pH 7.2 with CsOH.
First, the DMSO Master Plate was prepared, in which the DMSO stock of each test compound was serially diluted in 100% DMSO to 1000× the final assay concentration. Immediately prior to assay testing, the compounds were diluted 1:100 by transferring solutions from the DMSO Mast Plate to the Intermediate Plate pre-filled with EC solution using a Biomek FX automated liquid handling system. Compounds were then diluted further with extracellular solution into two pre-incubation plates—1) compound from the Intermediate Plate was mixed with EC solution at a 1:5 dilution to create a 2× Compound Pre-Incubation Plate which was diluted a further 1:2 when added to the Syncropatch for the initial compound pre-incubation. And 2) compound from the Intermediate plate was mixed with EC solution at a 1:10 Dilution to create the 1× Compound Pre-Incubation Plate, which was used for subsequent compound pre-incubations. Finally, a Compound+Agonist Plate was prepared by mixing compound from the 2× Compound Pre-Incubation Plate with 2× concentration of co-agonists in a 1:1 ratio.
Each experiment sequentially included cell catching, sealing, whole-cell formation, liquid application, recording and data acquisition. Whole-cell patch clamp recordings were performed using multi-hole high resistance chips on the SyncroPatch 384i (Nanion Technologies). A steady-state voltage pulse at -80 mV was applied throughout the assay and a 10 second recording window was triggered around 1 second prior to application of co-agonists. Currents were leak corrected and sampled at 5 kHz.
A fast application was used, in which 5 μl co-agonist was rapidly applied at a speed of 30 μl/s and then rapidly removed from the well. To test for modulator activity, the co-agonists glutamate (1 μM) and glycine (100 μM) were applied three times to show activation reproducibility, followed by 120 seconds pre-incubation of test compound alone. The test compound was then re-applied in the presence of co-agonists two times. This was followed by application of the agonist alone, although test compound may not be fully washed from the well prior to this step. Finally, a saturating concentration of co-agonists (glutamate 100 μM/glycine 100 μM) was applied.
The voltage protocol generation data collection and analysis were performed on PatchControll384 and DataControll384. […]

T1 sequence (Q12879 23-1464, other chains not shown): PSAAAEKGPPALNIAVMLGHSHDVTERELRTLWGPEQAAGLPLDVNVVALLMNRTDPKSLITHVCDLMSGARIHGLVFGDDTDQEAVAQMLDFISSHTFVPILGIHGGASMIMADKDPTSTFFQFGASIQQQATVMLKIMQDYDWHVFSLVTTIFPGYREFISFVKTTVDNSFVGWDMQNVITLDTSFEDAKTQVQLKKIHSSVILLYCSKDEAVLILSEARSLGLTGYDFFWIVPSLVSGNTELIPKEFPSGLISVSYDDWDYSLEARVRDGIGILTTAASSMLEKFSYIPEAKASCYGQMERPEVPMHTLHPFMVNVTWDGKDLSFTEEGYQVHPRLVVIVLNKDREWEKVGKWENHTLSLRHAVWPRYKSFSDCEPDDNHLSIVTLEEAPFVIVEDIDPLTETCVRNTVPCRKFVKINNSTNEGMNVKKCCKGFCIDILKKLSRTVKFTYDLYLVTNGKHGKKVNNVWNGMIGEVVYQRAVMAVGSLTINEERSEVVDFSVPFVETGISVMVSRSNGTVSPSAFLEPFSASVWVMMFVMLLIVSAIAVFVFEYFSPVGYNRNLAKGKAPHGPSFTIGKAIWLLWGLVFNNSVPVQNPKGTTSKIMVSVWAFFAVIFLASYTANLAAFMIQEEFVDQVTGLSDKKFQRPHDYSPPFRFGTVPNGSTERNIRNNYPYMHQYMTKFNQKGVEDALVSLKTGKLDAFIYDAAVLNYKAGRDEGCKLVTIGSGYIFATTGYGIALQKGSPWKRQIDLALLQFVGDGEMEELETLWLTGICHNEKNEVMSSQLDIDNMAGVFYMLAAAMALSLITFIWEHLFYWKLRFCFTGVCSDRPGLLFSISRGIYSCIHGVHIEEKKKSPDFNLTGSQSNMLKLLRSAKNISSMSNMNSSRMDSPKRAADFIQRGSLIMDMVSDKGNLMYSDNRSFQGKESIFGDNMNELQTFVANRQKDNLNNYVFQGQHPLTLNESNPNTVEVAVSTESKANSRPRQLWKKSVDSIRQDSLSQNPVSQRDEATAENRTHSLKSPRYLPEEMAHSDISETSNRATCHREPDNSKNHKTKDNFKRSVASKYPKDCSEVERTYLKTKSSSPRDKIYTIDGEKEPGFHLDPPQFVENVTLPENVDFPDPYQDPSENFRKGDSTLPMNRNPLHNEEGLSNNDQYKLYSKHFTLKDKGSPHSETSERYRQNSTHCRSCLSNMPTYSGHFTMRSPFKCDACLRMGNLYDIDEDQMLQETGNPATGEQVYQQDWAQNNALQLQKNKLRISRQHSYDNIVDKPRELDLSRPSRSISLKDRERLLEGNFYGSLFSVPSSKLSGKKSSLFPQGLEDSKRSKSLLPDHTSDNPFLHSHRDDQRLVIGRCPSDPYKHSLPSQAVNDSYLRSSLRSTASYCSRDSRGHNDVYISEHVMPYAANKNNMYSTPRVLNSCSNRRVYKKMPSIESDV

Compound	Emax (Table B-2) [%]	EC50 (Table B-2) [µM]	Emax (Table C-2) [%]	EC50 (Table C-2) [µM]	other results
CC[C@]1(O)CC[C@@]2(C)[C@@H](CC[C@H]3[C@@H]4[C@H]5C[C@H]5[C@H]([C@H](C)CCC(C)(C)O)[C@@]4(C)CC[C@@H]32)C1 [Compound B-6]	> 200	0.1 to 0.5			
CC[C@]1(O)CC[C@@]2(C)[C@@H](CC[C@@H]3[C@@H]2CC[C@]2(C)[C@@H]([C@H](C)CC[C@H](O)C4(C#N)CC4)CC[C@@H]32)C1 [Compound C-4, 1-((1S,4R)-4-((3S,5S,8R,9S,10S,13R,14S,17R)-3-ethyl-3-hydroxy-10,13-dimethylhexadecahydro-1H-cyclopenta[a]phenanthren-17-yl)-1-hydroxypentyl)cyclopropanecarbonitrile]			< 100	0.1 to 0.5	
CC[C@]1(O)CC[C@]2(C)C3=CC[C@]4(C)[C@@H]([C@H](C)CC[C@H](O)C(C)(C)C#N)CC[C@H]4[C@@H]3CC[C@H]2C1 [Compound C-29, (3S,6R)-6-((3S,5S,8S,10S,13R,14S,17R)-3-ethyl-3-hydroxy-10,13-dimethyl-2,3,4,5,6,7,8,10,12,13,14,15,16,17-tetradecahydro-1H-cyclopenta[a]phenanthren-17-yl)-3-hydroxy-2,2-dimethylheptanenitrile]				0.001 to 0.1	EC50 (Table E-2): 0.001 to 0.1 µM
CC[C@H](C#N)[C@H](O)CC[C@@H](C)[C@H]1CC[C@H]2[C@@H]3CC[C@H]4C[C@](O)(CC)CC[C@]4(C)[C@H]3CC[C@]12C [Compound C-5, (2R,3R,6R)-2-ethyl-6-((3S,5S,8R,9S,10S,13R,14S,17R)-3-ethyl-3-hydroxy-10,13-dimethylhexadecahydro-1H-cyclopenta[a]phenanthren-17-yl)-3-hydroxyheptanenitrile]			> 200	0.001 to 0.1	
CC[C@]1(O)CC[C@@]2(C)C(=CC[C@H]3[C@@H]4CC[C@H]([C@H](C)CC[C@@H](O)C5(C#N)CC5)[C@@]4(C)CC[C@@H]32)C1 [Compound C-21, 1-((1R,4R)-4-((3S,8S,9S,10R,13R,14S,17R)-3-ethyl-3-hydroxy-10,13-dimethyl-2,3,4,7,8,9,10,11,12,13,14,15,16,17-tetradecahydro-1H-cyclopenta[a]phenanthren-17-yl)-1-hydroxypentyl)cyclopropane-1-carbonitrile]				0.001 to 0.1	
CC[C@]1(O)CC[C@@]2(C)[C@@H](CC[C@H]3[C@@H]4[C@@H](C)C[C@H]([C@H](C)CC[C@@](C)(O)C(F)(F)F)[C@@]4(C)CC[C@@H]32)C1 [Compound B-13, (3S,5S,8R,9S,10S,13R,14S,15S,17R)-3-ethyl-10,13,15-trimethyl-17-((2R,5R)-6,6,6-trifluoro-5-hydroxy-5-methylhexan-2-yl)hexadecahydro-1H-cyclopenta[a]phenanthren-3-ol]	> 200	0.1 to 0.5			
CC[C@@H](C#N)[C@@H](O)CC[C@@H](C)[C@H]1CC[C@H]2[C@@H]3CC[C@H]4C[C@](O)(CC)CC[C@]4(C)[C@H]3CC[C@]12C [Compound C-8, (25,3S,6R)-2-ethyl-6-((3S,5S,8R,9S,10S,13R,14S,17R)-3-ethyl-3-hydroxy-10,13-dimethylhexadecahydro-1H-cyclopenta[a]phenanthren-17-yl)-3-hydroxyheptanenitrile]			< 100	0.001 to 0.1	
CC[C@]1(O)CC[C@]2(C)C3=CC[C@]4(C)[C@@H]([C@H](C)CC[C@@](C)(O)C(F)(F)F)CC[C@H]4[C@@H]3CC[C@H]2C1 [Compound E-2, (3S,5S,8S,10S,13R,14S,17R)-3-ethyl-10,13-dimethyl-17-((2R,5R)-6,6,6-trifluoro-5-hydroxy-5-methylhexan-2-yl)-2,3,4,5,6,7,8,10,12,13,14,15,16,17-tetradecahydro-1H-cyclopenta[a]phenanthren-3-ol]					Emax (Table E-2): > 200%; EC50 (Table E-2): 0.1 to 0.5 µM
CC[C@]1(O)CC[C@@]2(C)[C@@H](CC[C@H]3[C@@H]4[C@H](C5CC5)C[C@H]([C@H](C)CCCC(C)(C)O)[C@@]4(C)CC[C@@H]32)C1 [Compound B-17, (3S,5S,8R,9S,10S,13R,14S,15S,17R)-15-cyclopropyl-3-ethyl-17-((R)-6-hydroxy-6-methylheptan-2-yl)-10,13-dimethylhexadecahydro-1H-cyclopenta[a]phenanthren-3-ol]	100 to 200	0.1 to 0.5			
CC[C@@H](C#N)[C@H](O)CC[C@@H](C)[C@H]1CC[C@H]2[C@@H]3CC[C@H]4C[C@](O)(CC)CC[C@]4(C)[C@H]3CC[C@]12C [Compound C-7, (2S,3R,6R)-2-ethyl-6-((3S,5S,8R,9S,10S,13R,14S,17R)-3-ethyl-3-hydroxy-10,13-dimethylhexadecahydro-1H-cyclopenta[a]phenanthren-17-yl)-3-hydroxyheptanenitrile]			> 200	0.001 to 0.1	
CC[C@]1(O)CC[C@@]2(C)[C@@H](CC[C@H]3[C@@H]4[C@H]5C[C@H]5[C@H]([C@H](C)CC[C@@](C)(O)C(F)(F)F)[C@@]4(C)CC[C@@H]32)C1 [Compound B-7, (2S,4aS,4bS,6aR,7S,7aR,8aS,8bS,8cR,10aS)-2-ethyl-4a, 6a-dimethyl-7-((2R,5R)-6,6,6-trifluoro-5-hydroxy-5-methylhexan-2-yl)octadecahydrocyclopropa[4,5]cyclopenta[1,2-a]phenanthren-2-ol]	100 to 200	0.1 to 0.5			
CC[C@]1(O)CC[C@@]2(C)C(=CC[C@H]3[C@@H]4CC[C@H]([C@@H](CC[C@](C)(O)C(F)(F)F)OC)[C@@]4(C)CC[C@@H]32)C1 [Compound A-14, (3S,8S,9S,10R,13S,14S,17S)-3-ethyl-10,13-dimethyl-17-((1R,4S)-5,5,5-trifluoro-4-hydroxy-1-methoxy-4-methylpentyl)-2,3,4,7,8,9,10,11,12,13,14,15,16,17-tetradecahydro-1H-cyclopenta[a]phenanthren-3-ol]					Emax (Table A-2): > 200%; EC50 (Table A-2): 0.001 to 0.1 µM
CC[C@]1(O)CC[C@@]2(C)[C@@H](CC[C@H]3[C@@H]4[C@H]5C[C@H]5[C@H]([C@H](C)CC[C@](C)(O)C(F)(F)F)[C@@]4(C)CC[C@@H]32)C1 [Compound B-5, (2S,4aS,4bS,6aR,7S,7aR,8aS,8bS,8cR,10aS)-2-ethyl-4a,6a-dimethyl-7-((2R,5S)-6,6,6-trifluoro-5-hydroxy-5-methylhexan-2-yl)octadecahydrocyclopropa[4,5]cyclopenta[1,2-a]phenanthren-2-ol]	> 200	0.1 to 0.5			
